Laboratory results taken from paper PMC12154458, “High-Throughput Screens of Repurposing Hub and DOS Chemical Libraries Reveal Compounds with Novel and Potent Inhibitory Activity Against the Essential Non-Neuronal Acetylcholinesterase of Schistosoma mansoni (SmTAChE)” (International Journal of Molecular Sciences, 2025).
pIC50: −log10 of the molar value. Read-outs that look alike come from different tables or passages of the source.

Legend:
rSmTAChE [1] = target: T1, rSmTAChE (Schistosoma mansoni, UniProt A0A3Q0KMM5); test: biochemical
T1 sequence (A0A3Q0KMM5 27-661 limits assumed): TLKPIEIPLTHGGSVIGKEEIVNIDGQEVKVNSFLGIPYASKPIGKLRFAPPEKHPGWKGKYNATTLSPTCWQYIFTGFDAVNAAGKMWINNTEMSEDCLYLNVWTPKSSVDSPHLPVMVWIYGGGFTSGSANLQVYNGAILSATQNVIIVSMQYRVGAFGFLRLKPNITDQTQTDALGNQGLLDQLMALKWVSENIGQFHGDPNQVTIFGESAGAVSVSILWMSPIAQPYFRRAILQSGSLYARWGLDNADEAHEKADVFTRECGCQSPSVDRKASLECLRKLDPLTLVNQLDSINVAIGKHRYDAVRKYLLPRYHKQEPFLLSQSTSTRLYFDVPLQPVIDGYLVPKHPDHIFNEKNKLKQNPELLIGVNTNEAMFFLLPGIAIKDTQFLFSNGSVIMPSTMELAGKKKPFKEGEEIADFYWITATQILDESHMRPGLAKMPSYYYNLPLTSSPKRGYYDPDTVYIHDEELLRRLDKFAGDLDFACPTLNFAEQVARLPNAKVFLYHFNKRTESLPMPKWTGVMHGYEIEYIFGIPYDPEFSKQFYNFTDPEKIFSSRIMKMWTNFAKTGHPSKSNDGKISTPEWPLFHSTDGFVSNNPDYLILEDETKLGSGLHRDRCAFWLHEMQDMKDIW

rSmTAChE [2] = target: T1, rSmTAChE; type: biochemical; conditions: for pIC50: read-out: qAC50 (IC50), rSmTAChE; for IC50: read-out: IC50 (µM) rSmTAChE
[3] = target: recombinant human acetylcholinesterase, rHsAChE (Homo sapiens, UniProt P22303); test: biochemical
recombinant human acetylcholinesterase, rHsAChE, sequence (P22303 32-614): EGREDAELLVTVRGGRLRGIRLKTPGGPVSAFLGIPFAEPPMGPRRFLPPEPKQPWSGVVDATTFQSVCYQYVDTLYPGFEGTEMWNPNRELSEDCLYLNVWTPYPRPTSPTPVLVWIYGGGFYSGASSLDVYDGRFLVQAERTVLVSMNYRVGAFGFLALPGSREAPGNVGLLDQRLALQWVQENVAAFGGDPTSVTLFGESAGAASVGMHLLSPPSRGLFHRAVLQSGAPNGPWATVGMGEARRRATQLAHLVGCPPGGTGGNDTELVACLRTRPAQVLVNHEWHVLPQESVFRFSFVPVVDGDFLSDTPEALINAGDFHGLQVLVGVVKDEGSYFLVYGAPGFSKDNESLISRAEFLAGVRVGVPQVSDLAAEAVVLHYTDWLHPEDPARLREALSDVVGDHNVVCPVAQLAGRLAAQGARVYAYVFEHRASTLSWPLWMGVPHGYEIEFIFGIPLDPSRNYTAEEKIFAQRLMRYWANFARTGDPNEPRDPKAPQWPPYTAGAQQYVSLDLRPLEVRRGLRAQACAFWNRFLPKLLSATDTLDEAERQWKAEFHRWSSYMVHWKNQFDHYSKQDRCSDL

[4] = read-out: rSmTAChE HTS Inhibition (Ave, %)
[5] = dose response analysis of Drug Repurposing Hub hits against rHsAChE
[6] = read-out: HTS/rSmTAChE Inhibition (Ave, %)
[7] = read-out: qAC50 (IC50), rHsAChE
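Throughout, for Inhibition (%) (Average): mostly 20 µM final but a few compounds at 5 or 10 µM.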
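Throughout, for Inhibition (%) Replicate A: mostly 20 µM final but a few compounds at 5 or 10 µM.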
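Throughout, for Inhibition (%) Replicate B: mostly 20 µM final but a few compounds at 5 or 10 µM.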

SMILES	Inhibition (%) (Average) (rSmTAChE [1])	Inhibition (%) Replicate A (rSmTAChE [1])	Inhibition (%) Replicate B (rSmTAChE [1])	Data Mode (curve class), rSmTAChE (rSmTAChE [2])	Data Mode (curve class), rHsAChE [3]	further results
CC(=O)[C@@]12OC(C)(c3ccccc3)O[C@@H]1C[C@H]1[C@@H]3CCC4=CC(=O)CC[C@]4(C)[C@H]3CC[C@@]12C (stereo partly shown) [BRD-A41774846-001-01-4]	86.37%	86.06%	86.68%	decreasing (weakly active)	inactive	pIC50 (rSmTAChE [2]): < 4.42
C[C@]12CC[C@@H]3c4ccc(O)cc4CC[C@H]3[C@@H]1CCC2=O [BRD-K81839095-001-25-1]	94.45%	91.12%	97.78%	inactive	inactive	
C[C@H](CO)N1C[C@H](C)[C@H](CN(C)CC2CC2)OCc2ccccc2-c2c(n(C)c3ccccc23)C1=O [BRD-K90625171-001-01-1]	64.57%	64.87%	64.27%			rSmTAChE Data Mode (rSmTAChE [2]): decreasing (weakly active); rHsAChE Data Mode [3]: inactive
CN(C)C(=O)Oc1ccc[n+](C)c1 [Pyridostigmine bromide, reference compound]				decreasing	decreasing (super-active)	inhibition at 20 µM (rSmTAChE [1]; [4]): 92.4%
COc1cccc(C#Cc2ccc([C@@H]3[C@@H](C#N)N(C(=O)c4ccccn4)[C@H]3CO)cc2)c1 [BRD-K32986110-001-01-2, (2S,3R,4R)-4-(hydroxymethyl)-3-[4-[2-(3-methoxyphenyl)ethynyl]phenyl]-1-[oxo(2-pyridinyl)methyl]-2-azetidinecarbonitrile]						inhibition at 20 µM (rSmTAChE [1]; [4]): 71.4%; SI (Hs/Sm) (rSmTAChE [2]): 1.1; rSmTAChE Data Mode (rSmTAChE [2]): decreasing; IC50 ([3]; Table 2, DOS-A library, Inactive = inactive at the maximum tested concentration (40 µM), read-out: IC50 (µM) rHsAChE): 31.2 µM; pIC50 ([3]; Table S4, DOS-A (IC50 values; qAC50), read-out: rHsAChE qAC50): 4.51; rHsAChE Data Mode ([3]; dose response curve classification, Table S4, DOS-A): decreasing
CC(C)(Sc1cc(C(C)(C)C)c(O)c(C(C)(C)C)c1)Sc1cc(C(C)(C)C)c(O)c(C(C)(C)C)c1 [Probucol, reference compound]				decreasing (weakly active)		inhibition at 20 µM (rSmTAChE [1]; [4]): 93.7%; SI (Sm/Hs) [3]: 5.36; IC50 ([3]; IC50 (µM) rHsAChE): 7.09 µM; Data Mode (curve class), rHsAChE [3, 5]: decreasing
Cc1cc(Nc2ncc(Cl)c(Nc3ccccc3S(=O)(=O)C(C)C)n2)c(OC(C)C)cc1C1CCNCC1 [Ceritinib, reference compound]				decreasing		inhibition at 20 µM (rSmTAChE [1]; [6]): 67%; SI (Hs/Sm) (rSmTAChE [2]): 1.58; Data Mode (curve class), rHsAChE [3, 5]: decreasing (weakly active)
Cc1cnc(Nc2ccc(N3CCN(C)CC3)cc2)nc1Nc1cccc(S(=O)(=O)NC(C)(C)C)c1 [TG-101209, reference compound]	70.99%	68.94%	73.04%	decreasing	decreasing	HTS/rSmTAChE Inhibition (Ave, %) (rSmTAChE [1]; 20 µM): 71.00%; SI (Hs/Sm) (rSmTAChE [2]): 2.51; IC50 (rSmTAChE [2]): 6.13 µM; IC50 ([3]; read-out: IC50 (µM) rHsAChE): 15.4 µM; pIC50 [3, 7]: 4.81
O=C(NCCCCN1CCN(c2cccc(Cl)c2Cl)CC1)c1ccc2c(c1)Cc1ccccc1-2 [BRD-K05181084-003-04-5]	62.08%	63.93%	60.23%	inactive	inactive	
COc1ccc(NC(=O)Nc2ccc3c(c2)[C@@H]2C[C@H](CC(=O)NCc4ccc5c(c4)OCO5)O[C@@H](CO)[C@@H]2O3)cc1 [BRD-K27599706-001-01-0]	78.59%	80.15%	77.03%			rSmTAChE Data Mode (rSmTAChE [2]): decreasing (weakly active); rHsAChE Data Mode [3]: decreasing (weakly active)
CCOC(=O)C1=C(C)NC(C)=C(C(=O)OCC)C1c1ccccc1/C=C/C(=O)OC(C)(C)C [BRD-K43586850-001-02-9]	95.79%	92.71%	98.87%	inactive	inactive	
COc1ccc(C#Cc2ccc3c(c2)O[C@@H](CN(C)S(=O)(=O)c2ccccc2F)[C@@H](C)CN([C@H](C)CO)S3(=O)=O)cc1 [BRD-K67027685-001-01-8]	71.37%	69.23%	73.51%			rSmTAChE Data Mode (rSmTAChE [2]): inactive; rHsAChE Data Mode [3]: inactive
O=C(Nc1cccc2c(=O)cc(-c3nnn[nH]3)oc12)c1ccc(OCCCCc2ccccc2)cc1 [Pranlukast, reference compound]				decreasing		inhibition at 20 µM (rSmTAChE [1]; [4]): 66.3%; SI (Sm/Hs) [3]: 2.18; IC50 ([3]; IC50 (µM) rHsAChE): 12.6 µM; Data Mode (curve class), rHsAChE [3, 5]: decreasing
COc1ccc(C(Cl)=C(c2ccc(OC)cc2)c2ccc(OC)cc2)cc1 [BRD-K27062708-001-23-1]	64.11%	62.61%	65.61%	inactive	decreasing (weakly active)	pIC50 [3, 7]: < 4.42
CC(C)(C)[S@@+]([O-])N1Cc2cc(C(=O)N3CCCCC3)nc(-c3cccc(-c4ccccc4F)c3)c2[C@H]1CCO [BRD-K19167425-001-01-6]	62.31%	62.60%	62.02%			rSmTAChE Data Mode (rSmTAChE [2]): decreasing (weakly active); rHsAChE Data Mode [3]: inactive
Clc1ccc(CSC(Cn2ccnc2)c2ccc(Cl)cc2Cl)cc1 (stereo not shown) [BRD-A70649075-008-30-8]	65.58%	67.22%	63.95%	decreasing (weakly active)	decreasing (weakly active)	pIC50 (rSmTAChE [2]): < 4.42; pIC50 [3, 7]: < 4.42
COc1ccc(NC(=O)Nc2ccc3c(c2)[C@@H]2C[C@H](CC(=O)NCc4ccccn4)O[C@@H](CO)[C@@H]2O3)cc1 [BRD-K62846431-001-01-3]	77.92%	78.02%	77.82%			rSmTAChE Data Mode (rSmTAChE [2]): decreasing (weakly active); rHsAChE Data Mode [3]: decreasing (weakly active)
O=C(Nc1ncc(SCCN2CCCC2)s1)[C@]1(c2ccc(S(=O)(=O)C3CC3)cc2)C[C@H]1C1CCCCC1 [LY2608204, reference compound]		71.61%	81.29%	decreasing (weakly active)	decreasing	rSmTAChE HTS Inhibition (Ave, %) (rSmTAChE [1]; 20 µM): 76.45%; IC50 (rSmTAChE [2]): > 12 µM; SI (Sm/Hs) [3]: 23.28; IC50 ([3]; read-out: IC50 (µM) rHsAChE): 0.52 µM
CCN(c1ccccc1)c1cc(=NC)n(C)c(C)n1 [ZD-7288, 4-ethylphenylamino-1,2-dimethyl-6-methylaminopyrimidinium chloride, reference compound]				decreasing		inhibition at 10 µM (rSmTAChE [1]; [6]): 75%; SI (Hs/Sm) (rSmTAChE [2]): 46.87; fold greater potency/selectivity for SmTAChE vs. HsAChE (Selectivity Index) (rSmTAChE [2]): ~50 fold; IC50 ([3]; Table 1, Inactive = inactive at the maximum tested concentration (40 µM), read-out: IC50 (µM) rHsAChE): > 19.5 µM; Data Mode (curve class), rHsAChE [3, 5]: decreasing (weakly active); pIC50 ([3]; read-out: IC50 for rHsAChE): ~4.70
O=c1sn(-c2cccc3ccccc23)c(=O)n1Cc1ccccc1 [BRD-K81330143-001-04-8]	88.72%	89.17%	88.27%	inactive	inactive	
CC(C)c1onc(-c2c(Cl)cccc2Cl)c1COc1ccc(/C=C/c2cccc(C(=O)O)c2)c(Cl)c1 [GW-4064, reference compound]	65.99%	66.57%	65.41%	decreasing	decreasing	HTS/rSmTAChE Inhibition (Ave, %) (rSmTAChE [1]; 20 µM): 66.00%; SI (Hs/Sm) (rSmTAChE [2]): 6.00; IC50 (rSmTAChE [2]): 1.47 µM; IC50 ([3]; read-out: IC50 (µM) rHsAChE): 8.83 µM
